Assay results as given in ChEMBL document CHEMBL1134167, “Conformational study of a highly specific CXCR4 inhibitor, T140, disclosing the close proximity of its intrinsic pharmacophores associated with strong anti-HIV activity” (Bioorg Med Chem Lett, 2001).
Where a SMILES comes first, the peptide text is derived from it. Bridges are numbered along the chain shown (N, C = ends). [ ]: non-standard residue; d: D form. Gly(2-naphthyl) = N[C@H](C(=O)O)c1ccc2ccccc2c1; Cit = NC(=O)NCCC[C@H](N)C(=O)O

System: Human immunodeficiency virus 1
Test: Effective concentration for HIV-1 inhibition
Assay type: functional, organism-based

- EC50: 3.5 nM
Compound: NCCCC[C@@H]1NC(=O)[C@H](CCCN=C(N)N)NC(=O)[C@H](Cc2ccc(O)cc2)NC(=O)[C@@H](NC(=O)[C@@H](NC(=O)[C@H](CCCN=C(N)N)NC(=O)[C@@H](N)CCCN=C(N)N)c2ccc3ccccc3c2)CSSC[C@@H](C(=O)N[C@@H](CCCN=C(N)N)C(=O)O)NC(=O)[C@H](CCCNC(N)=O)NC(=O)[C@H](CCCN=C(N)N)NC(=O)[C@H](Cc2ccc(O)cc2)NC(=O)[C@@H]2CCCN2C(=O)[C@@H](CCCCN)NC1=O (H-RR[Gly(2-naphthyl)]CYRK[dK]PYR[Cit]CR-OH; disulfide 4-13)
